Legend:
[1] = target: T1, human β-N-acetylhexosaminidase B (HsHexB) (Homo sapiens, UniProt P07686); assay: Enzyme inhibitory activity test against HsHexB (4-MU-GlcNAc substrate, end-point fluorescence; Dixon plots for Ki); format: biochemical; conditions: pH 4.5; for inhibition at 100 µM: 100 μM inhibitor, 40 μM 4-MU-GlcNAc, 30°C, 30 min, read-out: Inhibition rate at 100 μM (%) HsHexB; for Ki: Dixon plots, 4-MU-GlcNAc 40, 20, 10 μM
T1 construct: made in house; host or cells: Pichia pastoris
T1 sequence (P07686 122-556): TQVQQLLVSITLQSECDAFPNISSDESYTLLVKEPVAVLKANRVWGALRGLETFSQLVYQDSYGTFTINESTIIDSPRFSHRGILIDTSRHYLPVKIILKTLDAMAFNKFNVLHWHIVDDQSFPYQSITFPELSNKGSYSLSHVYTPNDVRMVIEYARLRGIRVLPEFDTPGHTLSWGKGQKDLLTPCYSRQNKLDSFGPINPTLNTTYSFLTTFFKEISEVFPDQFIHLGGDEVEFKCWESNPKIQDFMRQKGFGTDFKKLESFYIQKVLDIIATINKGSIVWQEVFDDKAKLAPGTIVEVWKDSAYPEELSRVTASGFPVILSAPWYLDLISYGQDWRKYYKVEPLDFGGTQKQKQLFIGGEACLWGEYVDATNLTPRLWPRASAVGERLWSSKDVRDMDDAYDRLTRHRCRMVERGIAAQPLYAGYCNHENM
Experimental: (§1) Human O-GlcNAcase (hOGA) was expressed in Escherichia coli BL21(DE3) and purified according to previous methods (Kong et al., [2016]). Human β-N-acetylhexosaminidase B (HsHexB) was overexpressed in Pichia pastoris and then purified as described previously (Shen et al., [2018a]).
(§2) All target compounds were evaluated for their inhibitory activities against hOGA and HsHexB in end-point experiments. 4-Methylumbelliferyl N-acetyl-β-D-glucosaminide (4-MU-GlcNAc) was used as substrate. In a final assay volume of 100 μL, inhibitor and substrate (40 μM) were mixed with Britton-Robinson buffer (hOGA, pH 6.5; HsHexB, pH 4.5) and enzyme; then, the assay components were incubated at 30°C for 30 min. Subsequently, the enzymatic reaction was terminated by the addition of 100 μL 0.5 M Na2CO3 solution. The fluorescence of the liberated 4-methylumbelliferone (Mu) was quantified at an excitation of 366 nm and emission of 445 nm on a Varioskan Flash microplate reader (Thermo Fisher Scientific, USA). To determine the inhibition constant (Ki), Dixon plots were performed by changing the concentration of the 4-MU-GlcNAc (40, 20, and 10 μM).

human O-GlcNAcase (hOGA) = target: T2, human O-GlcNAcase (hOGA) (Homo sapiens, UniProt O60502); assay: Enzyme inhibitory activity test against hOGA (4-MU-GlcNAc substrate, end-point fluorescence; Dixon plots for Ki); format: biochemical; conditions: for inhibition at 100 µM: 100 μM inhibitor, 40 μM 4-MU-GlcNAc, 30°C, 30 min, read-out: Inhibition rate at 100 μM (%) hOGA; for inhibition at 100 µM / Ki: pH 6.5; for Ki: Dixon plots, 4-MU-GlcNAc 40, 20, 10 μM
T2 construct: made in house; host or cells: Escherichia coli BL21(DE3)
T2 sequence (O60502 1-916): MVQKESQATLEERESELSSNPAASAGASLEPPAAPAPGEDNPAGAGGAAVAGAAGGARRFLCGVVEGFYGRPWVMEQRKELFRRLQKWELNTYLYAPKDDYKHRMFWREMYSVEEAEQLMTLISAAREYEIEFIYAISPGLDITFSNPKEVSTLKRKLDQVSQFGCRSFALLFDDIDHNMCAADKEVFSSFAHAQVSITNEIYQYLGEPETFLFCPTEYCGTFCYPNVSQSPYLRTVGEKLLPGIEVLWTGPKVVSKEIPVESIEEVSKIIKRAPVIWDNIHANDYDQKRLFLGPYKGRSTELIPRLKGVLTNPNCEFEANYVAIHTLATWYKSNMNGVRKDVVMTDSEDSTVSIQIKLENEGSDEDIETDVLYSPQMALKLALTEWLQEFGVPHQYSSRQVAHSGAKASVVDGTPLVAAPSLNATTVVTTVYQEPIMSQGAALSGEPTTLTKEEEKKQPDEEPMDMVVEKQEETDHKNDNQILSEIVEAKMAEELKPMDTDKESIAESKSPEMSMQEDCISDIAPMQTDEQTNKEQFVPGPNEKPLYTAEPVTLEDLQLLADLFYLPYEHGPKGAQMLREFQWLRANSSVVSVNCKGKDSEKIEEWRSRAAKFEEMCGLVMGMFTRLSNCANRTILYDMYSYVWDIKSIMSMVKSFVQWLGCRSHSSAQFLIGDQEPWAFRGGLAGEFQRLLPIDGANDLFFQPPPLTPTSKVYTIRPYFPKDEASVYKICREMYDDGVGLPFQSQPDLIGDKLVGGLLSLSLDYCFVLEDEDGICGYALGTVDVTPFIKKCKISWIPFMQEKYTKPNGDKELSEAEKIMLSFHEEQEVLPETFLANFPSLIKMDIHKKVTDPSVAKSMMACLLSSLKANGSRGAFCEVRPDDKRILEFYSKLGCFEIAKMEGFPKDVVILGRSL
Experimental: as §1, §2

Structure (SMILES)	inhibition at 100 µM [1] [%]	Ki [1] [µM]	inhibition at 100 µM (human O-GlcNAcase (hOGA)) [%]	Ki (human O-GlcNAcase (hOGA)) [µM]	decrease in inhibitory potency against hOGA (human O-GlcNAcase (hOGA); 10d compared to 10a (Ki)) [fold]	inhibitory mechanism toward hOGA (human O-GlcNAcase (hOGA); kinetic studies via Dixon plots)	decrease in inhibitory activity against hOGA (human O-GlcNAcase (hOGA); NHC2H5 (17a or 17d) compared to NHCH3 (16h or 17c)) [fold]
O=C(CS[C@@H]1O[C@H](CO)[C@@H](O)[C@H](O)[C@H]1NC(=O)C(F)(F)F)NCCCN1C(=O)c2cccc3c(N4CCCCC4)ccc(c23)C1=O [Compound 16g]	6.4 ± 0.7	> 100	82.7 ± 1	6.37 ± 0.09			
CCCC(=O)N[C@@H]1[C@@H](O)[C@H](O)[C@@H](CO)O[C@H]1SCC(=O)NCCCN1C(=O)c2cccc3c(Br)ccc(c23)C1=O [Compound 16m]	39.8 ± 2.3	> 100	97.1 ± 1.3	4.36 ± 0.21			
O=C(CS[C@@H]1O[C@H](CO)[C@@H](O)[C@H](O)[C@H]1NC(=O)OCc1ccccc1)NCCCN1C(=O)c2cccc3c(N4CCCCC4)ccc(c23)C1=O [Compound 16c]	2 ± 1.1	> 100	9.7 ± 0.7	> 100			
O=C(CS[C@@H]1O[C@H](CO)[C@@H](O)[C@H](O)[C@H]1NC(=O)c1ccc(F)cc1)NCCCN1C(=O)c2cccc3c(N4CCCCC4)ccc(c23)C1=O [Compound 16b]	15.8 ± 0.4	> 100	50.9 ± 0.8	> 100			
O=C(CS[C@@H]1O[C@H](CO)[C@@H](O)[C@H](O)[C@H]1NC(=O)c1ccccc1)NCCCN1C(=O)c2cccc3c(N4CCCCC4)ccc(c23)C1=O [Compound 16a]	12.2 ± 0.2	> 100	22 ± 0.5	> 100			
O=C(CS[C@@H]1O[C@H](CO)[C@@H](O)[C@H](O)[C@H]1NC(=O)c1ccccc1)NCCCN1C(=O)c2cccc3c(Br)ccc(c23)C1=O [Compound 16j]	49.1 ± 1.4	> 100	41.1 ± 0.6	> 100			
CCC(=O)N[C@@H]1[C@@H](O)[C@H](O)[C@@H](CO)O[C@H]1SCC(=O)NCCCN1C(=O)c2cccc3c(Br)ccc(c23)C1=O [Compound 16l]	41.8 ± 1	> 100	97.7 ± 2.2	0.72 ± 0.01			
CC(=O)N[C@@H]1[C@@H](O)[C@H](O)[C@@H](CO)O[C@H]1SCC(=O)NCCCN1C(=O)c2cccc3c(N4CCCCC4)ccc(c23)C1=O [Compound 10d]	32.8 ± 2.7	> 100	93.1 ± 0.2	1.42 ± 0.02	2.3	competitive inhibitors	
COc1ccc2c3c(cccc13)C(=O)N(CCCNC(=O)CS[C@@H]1O[C@H](CO)[C@@H](O)[C@H](O)[C@H]1NC(C)=O)C2=O [Compound 10b]	49.2 ± 1.4	> 100	90.6 ± 0.5	4.43 ± 0.21			
CC(C)C(=O)N[C@@H]1[C@@H](O)[C@H](O)[C@@H](CO)O[C@H]1SCC(=O)NCCCN1C(=O)c2cccc3c(N4CCCCC4)ccc(c23)C1=O [Compound 16f]	21.4 ± 0.5	> 100	72.2 ± 0.3	23.6 ± 0.43			
CCC(=O)N[C@@H]1[C@@H](O)[C@H](O)[C@@H](CO)O[C@H]1SCC(=O)NCCCN1C(=O)c2cccc3c(N4CCCCC4)ccc(c23)C1=O [Compound 16d]	28.7 ± 2	> 100	88 ± 1.5	1.69 ± 0.05			
CCNC(=O)N[C@@H]1[C@@H](O)[C@H](O)[C@@H](CO)O[C@H]1SCC(=O)NCCCN1C(=O)c2cccc3c(N4CCCCC4)ccc(c23)C1=O [Compound 17a]	25.9 ± 0.3	> 100	68.6 ± 0.8	12 ± 0.3			2 to 3

— PMC6669961, “Design and Optimization of Thioglycosyl–naphthalimides as Efficient Inhibitors Against Human O-GlcNAcase” (Frontiers in Chemistry, 2019)
